Data taken from patent US6906077B1, “Use of neurotrophic factor stimulators for the treatment of ophthalmic neurodegenerative diseases” (Alcon Manufacturing, Ltd., priority 1998, dated 2005).

Columns and labels:
[1] = tested on: RGCs (retinal ganglion cells); assay: Retinal Ganglion Cell Survival Assay (serum deprivation); type: cell-based, Neonatal, Sprague-Dawley rats; conditions: cultured without serum; Propentofylline 100 μM; 3 days after serum removal; survival with serum = 100%; mean and SEM (n = 6)
Source text: Retinal Ganglion Cell Survival Assay:
Techniques for the isolation and culture of RGCs were adapted from those reported by Takahashi N. et al., Rat retinal ganglion cells in culture. Exp. Eye Res. volume 53, pages 565-572 (1991). […] Two to 4 days later, retina cells were dissociated. Cultured RGCs were identified by sufficient Di-I fluorescence to be observed visually using a fluorescent microscope.
Neonatal, Sprague-Dawley rats, 2-5 days old, were anesthetized by hypothermia, after which, a 2 mm midline opening was made in the scalp just caudal to the traverse sinus. The tip of the injection needle (30 gauge) was inserted 6 mm below the top of the skull, and a 5 μl Di-I solution, containing 3 mg/ml Di-I (1,1′-dioctadecyl-3,3,3′,3′-tetramethylindo-carbocyanine perchlorate (Molecular Probes, Eugene, Oreg.) in 90% ethanol and 10% dimethylsulfoxide, was injected. The wound was then covered with a drop of Flexible Collodion (Amend Drug & Chemical Co., Irvington, N.J.). Rats were returned to their mother after warming and recovery from anesthesia.
Two to 4 days after Di-I injection, rats were anesthetized by hypothermia and sacrificed by decapitation. Their eyes were enucleated and placed in Dulbecco's modified Eagle's medium: Nutrient mixture F12 (1:1; DMEM/F12, Gibco Co., Grand Island, N.Y.). The retina from each eye was detached and isolated. […]

[2] = tested on: axotomized RGCs; conditions: single intravitreal injection of 5 μg on Day 0; one week after; untreated retinas lost nearly half of the axotomized RGCs; cited from earlier work

Molecule	RGC Survival (%) [1]	survival of axotomized RGCs [2]
CCCn1cnc2c1c(=O)n(CCCCC(C)=O)c(=O)n2C [Propentofylline, propentofylline]	96.9 ± 4.8 %	–
brain-derived neurotrophic factor (protein, UniProt P23560 19-247, looked up) Neurotrophic factor BDNF …: APMKEANIRGQGGLAYPGVRTHGTLESVNGPKAGSRGLTSLADTFEHVIEELLDEDQKVRPNEENNKDADLYTSRVMLSSQVPLEPPLLFLLEEYKNYLDAANMSMRVRRHSDPARRGELSVCDSISEWVTAADKKTAVDMSGGTVTVLEKVPVSKGQLKQYFYETKCNPMGYTKEGCRGIDKRHWNSQCRTTQSYVRALTMDSKKRIGWRFIRIDTSCVCTLTIKRGR	–	virtually all RGCs were present
